Results taken from patent US9732094B2, “Arylquinazolines” (Merck Patent GmbH, priority 2013, dated 2017).
Where two headings read alike, the source gives them in different places.

Key:
[1] = molecular target: Kv11.1 (hERG) (Homo sapiens (Human), UniProt Q12809); experiment: Kv11.1 (hERG) ion channel activity (patch clamp assay), HEK293 cells transfected with hERG gene
[2] = molecular target: DNA-PK phosphorylation at serine 2056 (Homo sapiens (Human), UniProt P78527); experiment: DNA-PK phosphorylation at serine 2056 (cellular), bleomycin-treated HCT116 cells, ELISA; format: cell-based; conditions: HCT116 cells, read-out: IC50 pDNA-PK
Method in brief: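 HCT116 cells grown overnight were co-treated with 10 μM bleomycin and test compound for 6 h at 37 °C. Phospho-DNA-PK was quantified by chemiluminescent ELISA and normalised to total DNA-PKcs signal, with DMSO control as blank.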

[3] = molecular target: DNA-PK (Homo sapiens (Human), UniProt P78527); experiment: DNA-PK assay (biochemical), flashplate 33P-ATP kinase assay
Method in brief: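 Reactions ran in streptavidin-coated flashplates and were halted by 200 mM EDTA, with a further 30 min at room temperature before saline washing.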

[4] = read-out: Ki [Kv1.11 hERG], Table 5
[5] = cellular, 10 μM bleomycin, six hours
[6] = read-out: Ki [Kv1.11 hERG], patch clamp, HEK293 transfected with hERG gene

Chain of Kv11.1 (hERG) (Q12809 whole entry): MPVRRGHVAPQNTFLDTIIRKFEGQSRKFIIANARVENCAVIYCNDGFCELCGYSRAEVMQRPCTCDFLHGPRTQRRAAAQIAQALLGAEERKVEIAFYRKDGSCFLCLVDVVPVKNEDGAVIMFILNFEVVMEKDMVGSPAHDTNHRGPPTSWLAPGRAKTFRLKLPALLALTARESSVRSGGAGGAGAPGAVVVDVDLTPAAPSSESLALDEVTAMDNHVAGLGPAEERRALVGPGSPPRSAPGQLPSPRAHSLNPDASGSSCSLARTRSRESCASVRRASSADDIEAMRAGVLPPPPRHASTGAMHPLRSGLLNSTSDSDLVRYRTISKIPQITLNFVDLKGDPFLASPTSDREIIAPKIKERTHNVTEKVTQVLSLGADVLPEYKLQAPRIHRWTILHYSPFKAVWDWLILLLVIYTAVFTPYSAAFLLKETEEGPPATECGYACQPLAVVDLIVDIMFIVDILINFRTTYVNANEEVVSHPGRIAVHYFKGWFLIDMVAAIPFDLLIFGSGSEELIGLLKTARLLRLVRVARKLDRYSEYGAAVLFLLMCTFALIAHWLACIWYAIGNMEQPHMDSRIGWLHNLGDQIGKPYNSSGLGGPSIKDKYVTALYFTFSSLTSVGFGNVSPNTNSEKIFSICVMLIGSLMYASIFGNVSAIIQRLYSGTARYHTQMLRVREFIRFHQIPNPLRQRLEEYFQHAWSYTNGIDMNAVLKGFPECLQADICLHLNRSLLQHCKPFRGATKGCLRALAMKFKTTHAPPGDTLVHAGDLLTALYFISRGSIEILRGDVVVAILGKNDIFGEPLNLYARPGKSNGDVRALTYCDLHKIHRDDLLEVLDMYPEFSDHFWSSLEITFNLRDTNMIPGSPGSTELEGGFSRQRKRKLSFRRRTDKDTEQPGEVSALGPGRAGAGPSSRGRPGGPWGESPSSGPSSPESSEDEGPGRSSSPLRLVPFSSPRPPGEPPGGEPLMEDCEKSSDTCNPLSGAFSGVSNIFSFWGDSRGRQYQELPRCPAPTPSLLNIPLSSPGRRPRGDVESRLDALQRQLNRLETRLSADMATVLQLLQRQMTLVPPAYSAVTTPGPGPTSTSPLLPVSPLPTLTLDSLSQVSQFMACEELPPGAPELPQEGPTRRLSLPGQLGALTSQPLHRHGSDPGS

SMILES | IC50 ([2]; Table 5) [µM] | IC50 ([3]; Table 5) [µM] | IC50 [2, 5] [µM] | IC50 ([3]; enzymatic, 5 μM ATP) [µM] | Ki [1, 4] [µM] | Ki ([1]; Ki [Kv1.11 hERG], Table 5) [µM] | Ki ([1]; Ki [Kv1.11 hERG], patch clamp, HEK293 transfected with hERG gene) [µM] | Ki [1, 6] [µM]
OC(c1cccc(-c2ncnc3cc(N4CCOCC4)ccc23)c1)c1nccs1 (stereo not drawn) [Example 150, [3-(7-Morpholin-4-ylquinazolin-4-yl)-phenyl]thiazol-2-yl-methanol] | 5 to 10 | 0.007 to 0.03 | – | – | > 25 | – | – | –
CC(O)(c1cncc(-c2ncnc3cc(N4CCOCC4)ccc23)c1)c1nccs1 (stereo not drawn) [Example 152, 1-[5-(7-Morpholin-4-ylquinazolin-4-yl)-pyridin-3-yl]-1-thiazol-2-ylethanol] | 10 to 30 | 0.007 to 0.03 | – | – | > 25 | – | – | –
OC(c1cccc(-c2ncnc3cc(N4CCOCC4)ccc23)c1)(c1nccs1)C(F)(F)F (stereo not drawn) [Example 159, 2,2,2-Trifluoro-1-[3-(7-morpholin-4-yl-quinazolin-4-yl)-phenyl]-1-thiazol-2-ylethanol] | 10 to 30 | 0.007 to 0.03 | – | – | < 10 | – | – | –
CC(O)(c1ccc(F)c(-c2ncnc3cc(N4CCOCC4)ccc23)c1)c1nccs1 (stereo not drawn) [Example 163, 1-[4-Fluoro-3-(7-morpholin-4-yl-quinazolin-4-yl)-phenyl]-1-thiazol-2-ylethanol] | 10 to 30 | 0.007 to 0.03 | – | – | – | 10 to 15 | – | –
OC(c1cc(F)c(F)c(-c2ncnc3cc(N4CCOCC4)ccc23)c1)c1nccs1 (stereo not drawn) [Example 171, [3,4-Difluoro-5-(7-morpholin-4-yl-quinazolin-4-yl)-phenyl]thiazol-2-yl-methanol] | 0.5 to 5 | < 0.003 | – | – | < 10 | – | – | –
OC(c1cccc(-c2ncnc3cc(N4CCOCC4)ccc23)c1)(c1nccs1)C(F)(F)F (stereo not drawn) [Example 173, 2,2,2-Trifluoro-1-[3-(7-morpholin-4-yl-quinazolin-4-yl)-phenyl)-1-thiazol-2-ylethanol] | 5 to 10 | < 0.003 | – | – | < 10 | – | – | –
COC(c1ccc(F)c(-c2ncnc3cc(N4CCOCC4)ccc23)c1)c1nccs1 (stereo not drawn) [Example 177, 4-[2-Fluoro-5-(-methoxythiazol-2-ylmethyl)phenyl]-7-morpholin-4-yl-quinazoline] | 10 to 30 | 0.003 to 0.007 | – | – | > 25 | – | – | –
OC(c1cc(F)c(F)c(-c2ncnc3cc(N4CCOCC4)ccc23)c1)c1nccs1 (stereo not drawn) [Example 178, [3,4-Difluoro-5-(7-morpholin-4-yl-quinazolin-4-yl)-phenyl)thiazol-2-yl-methanol] | 0.5 to 5 | < 0.003 | – | – | > 25 | – | – | –
OC(c1cc(F)c(F)c(-c2ncnc3cc(N4CCOCC4)ccc23)c1)c1nccs1 (stereo not drawn) [Example 179, [3,4-Difluoro-5-(7-morpholin-4-yl-quinazolin-4-yl)-phenyl]thiazol-2-yl-methanol] | 0.5 to 5 | 0.003 to 0.007 | – | – | < 10 | – | – | –
OC(c1cnc(F)c(-c2ncnc3cc(N4CCOCC4)ccc23)c1)c1nccs1 (stereo not drawn) [Example 180, [6-Fluoro-5-(7-morpholin-4-yl-quinazolin-4-yl)-pyridin-3-yl]thiazol-2-ylmethanol] | 5 to 10 | < 0.003 | – | – | < 10 | – | – | –
Cc1csc(C(O)c2cc(-c3ncnc4cc(N5CCOCC5)ccc34)c(F)cc2Cl)n1 (stereo not drawn) [Example 181, [2-Chloro-4-fluoro-5-(7-morpholin-4-yl-quinazolin-4-yl)-phenyl]-(4-methyl-thiazol-2-yl)-methanol] | 0.5 to 5 | < 0.003 | – | – | < 10 | – | – | –
OCc1csc([C@@H](O)c2cc(-c3ncnc4cc(N5CCOCC5)ccc34)c(F)cc2Cl)n1 [Example 185, (S)-[2-Chloro-4-fluoro-5-(7-morpholin-4-yl-quinazolin-4-yl)-phenyl]-(4-hydroxymethyl-thiazol-2-yl)-methanol] | 0.5 to 5 | < 0.003 | – | – | > 25 | – | – | –
OCc1csc([C@H](O)c2cc(-c3ncnc4cc(N5CCOCC5)ccc34)c(F)cc2Cl)n1 [Example 186, (R)-[2-Chloro-4-fluoro-5-(7-morpholin-4-yl-quinazolin-4-yl)-phenyl]-(4-hydroxymethyl-thiazol-2-yl)-methanol] | 5 to 10 | 0.007 to 0.03 | – | – | < 10 | – | – | –
OC(c1cnc(F)c(-c2ncnc3cc(N4CCOCC4)ccc23)c1)c1nccs1 (stereo not drawn) [Example 188, [6-Fluoro-5-(7-morpholin-4-yl-quinazolin-4-yl)-pyridin-3-yl]thiazol-2-ylmethanol] | 5 to 10 | < 0.003 | – | – | > 25 | – | – | –
OC(c1cnc(F)c(-c2ncnc3cc(N4CCOCC4)ccc23)c1)c1nccs1 (stereo not drawn) [Example 189, [6-Fluoro-5-(7-morpholin-4-yl-quinazolin-4-yl)-pyridin-3-yl]thiazol-2-ylmethanol] | 0.5 to 5 | 0.003 to 0.007 | – | – | – | 15 to 25 | – | –
Cn1cc(C(O)c2ccc(F)c(-c3ncnc4cc(N5CCOCC5)ccc34)c2)cn1 (stereo not drawn) [Example 191, [4-Fluoro-3-(7-morpholin-4-yl-quinazolin-4-yl)-phenyl]-(1-methyl-1H-pyrazol-4-yl)-methanol] | 10 to 30 | < 0.003 | – | – | > 25 | – | – | –
Cc1nc(C(O)c2cnc(F)c(-c3ncnc4cc(N5CCOCC5)ncc34)c2)sc1C (stereo not drawn) [Example 196, (4,5-Dimethyl-thiazol-2-yl)-[6-fluoro-5-(7-morpholin-4-yl-pyrido[4,3-d)-pyrimidin-4-yl)-pyridin-3-yl]-methanol] | 10 to 30 | 0.007 to 0.03 | – | – | > 25 | – | – | –
CC(C)n1cc(C(O)c2ccc(F)c(-c3ncnc4cc(N5CCOCC5)ccc34)c2)cn1 (stereo not drawn) [Example 197, [4-Fluoro-3-(7-morpholin-4-yl-quinazolin-4-yl)-phenyl]-(1-isopropyl-1H-pyrazol-4-yl)-methanol] | 5 to 10 | 0.003 to 0.007 | – | – | < 10 | – | – | –
Fc1ccc(C(OC(F)F)c2nccs2)cc1-c1ncnc2cc(N3CCOCC3)ccc12 (stereo not drawn) [Example 199, 4-[5-(Difluoro-methoxy-thiazol-2-ylmethyl)-2-fluoro-phenyl]-7-morpholin-4-yl-quinazoline] | 10 to 30 | 0.003 to 0.007 | – | – | < 10 | – | – | –
Cc1nc(C(O)c2ccc(F)c(-c3ncnc4cc(N5CCOCC5)ccc34)c2)sc1CO (stereo not drawn) [Example 200, [4-Fluoro-3-(7-morpholin-4-yl-quinazolin-4-yl)-phenyl]-(5-hydroxy-methyl-4-methyl-thiazol-2-yl)-methanol] | 5 to 10 | 0.003 to 0.007 | – | – | > 25 | – | – | –

Second part, led by results:

IC50 ([2]; Table 5) [µM] | IC50 ([3]; Table 5) [µM] | IC50 [2, 5] [µM] | IC50 ([3]; enzymatic, 5 μM ATP) [µM] | SMILES | Ki [1, 4] [µM] | Ki ([1]; Ki [Kv1.11 hERG], Table 5) [µM] | Ki ([1]; Ki [Kv1.11 hERG], patch clamp, HEK293 transfected with hERG gene) [µM] | Ki [1, 6] [µM]
0.5 to 5 | 0.003 to 0.007 | – | – | CC(O)c1csc(C(O)c2cc(-c3ncnc4cc(N5CCOCC5)ccc34)c(F)cc2Cl)n1 (stereo not drawn) [Example 201, 1-(2-{[2-Chloro-4-fluoro-5-(7-morpholin-4-yl-quinazolin-4-yl)-phenyl]hydroxy-methyl}thiazol-4-yl)-ethanol] | – | 15 to 25 | – | –
0.5 to 5 | 0.007 to 0.03 | – | – | CCn1cc(C(O)c2cc(-c3ncnc4cc(N5CCOCC5)ccc34)c(F)cc2Cl)cn1 (stereo not drawn) [Example 202, [2-Chloro-4-fluoro-5-(7-morpholin-4-ylquinazolin-4-yl)-phenyl]-(1-ethyl-1H-pyrazol-4-yl)-methanol] | – | 15 to 25 | – | –
10 to 30 | > 0.03 | – | – | Cc1nc(C(O)c2cnc(F)c(-c3ncnc4cc(N5CCOCC5)ncc34)c2)sc1C (stereo not drawn) [Example 203, (4,5-Dimethyl-thiazol-2-yl)-[6-fluoro-5-(7-morpholin-4-yl-pyrido[4,3-d}-pyrimidin-4-yl)-pyridin-3-yl]-methanol] | > 25 | – | – | –
10 to 30 | > 0.03 | – | – | Cc1nc([C@H](O)c2cnc(F)c(-c3ncnc4cc(N5CCOCC5)ncc34)c2)sc1C [Example 204, (R)-(4,5-Dimethyl-thiazol-2-yl)-[6-fluoro-5-(7-morpholin-4-yl-pyrido[4,3-d}-pyrimidin-4-yl)-pyridin-3-yl]-methanol] | – | 10 to 15 | – | –
10 to 30 | 0.007 to 0.03 | – | – | Cc1nc(C(O)c2cc(-c3ncnc4cc(N5CCOCC5)ccc34)cnc2F)sc1C (stereo not drawn) [Example 205, (4,5-Dimethyl-thiazol-2-yl)-[2-fluoro-5-(7-morpholin-4-yl-quinazolin-4-yl)-pyridin-3-yl]-methanol] | – | 10 to 15 | – | –
– | – | 0.5 to 5 | < 0.003 | Cc1cc(F)c(-c2ncnc3cc(N4CCOCC4)ccc23)cc1C(O)c1nccs1 (stereo not drawn) [Example 207, [4-Fluoro-2-methyl-5-(7-morpholinylquinazolin-4-yl)phenyl]thiazol-2-ylmethanol] | – | – | 15 to 25 | –
– | – | 0.5 to 5 | 0.003 to 0.007 | C#Cc1nc(-c2cc(C(O)c3nccs3)ccc2F)c2ccc(N3CCOCC3)cc2n1 (stereo not drawn) [Example 208, [3-(2-Ethynyl-7-morpholinylquinazolin-4-yl)-4-fluorophenyl]thiazol-2-ylmethanol] | – | – | – | < 10
– | – | 10 to 30 | > 0.03 | Cc1cc(F)c(-c2ncnc3cc(N4CCOCC4)ccc23)cc1C(O)c1nccs1 (stereo not drawn) [Example 209, [4-Fluoro-2-methyl-5-(7-morpholin-4-yl-quinazolin-4-yl)-phenyl]thiazol-2-ylmethanol] | – | – | – | > 25
– | – | 0.5 to 5 | 0.003 to 0.007 | Cc1cc(F)c(-c2ncnc3cc(N4CCOCC4)ccc23)cc1C(O)c1nccs1 (stereo not drawn) [Example 210, [4-Fluoro-2-methyl-5-(7-morpholin-4-yl-quinazolin-4-yl)-phenyl]thiazol-2-ylmethanol] | – | – | – | > 25
– | – | 0.5 to 5 | 0.003 to 0.007 | OC(c1ccc(F)c(-c2ncnc3cc(N4CCOCC4)ccc23)c1)c1nccs1 (stereo not drawn) [Example 211, [4-Fluoro-3-(7-morpholin-4-yl-quinazolin-4-yl)-phenyl]thiazol-2-ylmethanol] | – | – | – | > 25
